**Q.** For `CC(=O)Oc1ccccc1C(=O)O`, which solubility (mole fraction) (in acetone, 281.9 K) is on record?
**A.** 0.061

**Q.** What about the solubility (mole fraction) (in acetone, 290.6 K) of the same molecule?
**A.** 0.075

**Q.** What about the solubility (mole fraction) (in acetone, 297.9 K) of the same molecule?
**A.** 0.088

**Q.** And the solubility (mole fraction) (in acetone, 304.4 K)?
**A.** 0.101

**Q.** What about the solubility (mole fraction) (in acetone, 310.6 K) of the same molecule?
**A.** 0.114

**Q.** What about the solubility (mole fraction) (in acetone, 315.3 K) of the same molecule?
**A.** 0.127

**Q.** What about the solubility (mole fraction) (in acetone, 319.8 K) of the same molecule?
**A.** 0.139

**Q.** What about the solubility (mole fraction) (in acetone, 323.3 K) of the same molecule?
**A.** 0.151

**Q.** And the solubility (mole fraction) (in acetone, 326.3 K)?
**A.** 0.162

**Q.** What about the solubility (mole fraction) (in ethanol, 276.3 K) of the same molecule?
**A.** 0.025

**Q.** What about the solubility (mole fraction) (in ethanol, 291.9 K) of the same molecule?
**A.** 0.049

**Q.** And the solubility (mole fraction) (in ethanol, 302.4 K)?
**A.** 0.071

**Q.** And the solubility (mole fraction) (in ethanol, 310 K)?
**A.** 0.093

**Q.** What about the solubility (mole fraction) (in ethanol, 316.5 K) of the same molecule?
**A.** 0.113

**Q.** What about the solubility (mole fraction) (in ethanol, 321.5 K) of the same molecule?
**A.** 0.133

**Q.** And the solubility (mole fraction) (in ethanol, 325.9 K)?
**A.** 0.152

**Q.** And the solubility (mole fraction) (in ethanol, 330.4 K)?
**A.** 0.17

**Q.** What about the solubility (mole fraction) (in ethanol, 333.4 K) of the same molecule?
**A.** 0.187

**Q.** What about the solubility (mole fraction) (in ethanol, 336.6 K) of the same molecule?
**A.** 0.204

**Q.** And the solubility (mole fraction) (in isopropanol, 281.6 K)?
**A.** 0.013

**Q.** And the solubility (mole fraction) (in isopropanol, 291.8 K)?
**A.** 0.032

**Q.** What about the solubility (mole fraction) (in isopropanol, 304.1 K) of the same molecule?
**A.** 0.063

**Q.** And the solubility (mole fraction) (in isopropanol, 312.9 K)?
**A.** 0.091

**Q.** And the solubility (mole fraction) (in isopropanol, 316.1 K)?
**A.** 0.102

**Q.** And the solubility (mole fraction) (in isopropanol, 320.4 K)?
**A.** 0.118

**Q.** What about the solubility (mole fraction) (in isopropanol, 322.7 K) of the same molecule?
**A.** 0.128

**Q.** What about the solubility (mole fraction) (in isopropanol, 325.8 K) of the same molecule?
**A.** 0.143

**Q.** What about the solubility (mole fraction) (in isopropanol, 327.7 K) of the same molecule?
**A.** 0.153

**Q.** And the solubility (mole fraction) (in isopropanol, 330.2 K)?
**A.** 0.167

**Q.** What about the solubility (mole fraction) (in propylene glycol, 295.7 K) of the same molecule?
**A.** 0.017

**Q.** What about the solubility (mole fraction) (in propylene glycol, 301.1 K) of the same molecule?
**A.** 0.025

**Q.** What about the solubility (mole fraction) (in propylene glycol, 305.1 K) of the same molecule?
**A.** 0.033

**Q.** And the solubility (mole fraction) (in propylene glycol, 308.2 K)?
**A.** 0.041

**Q.** What about the solubility (mole fraction) (in propylene glycol, 313.6 K) of the same molecule?
**A.** 0.056

**Q.** And the solubility (mole fraction) (in propylene glycol, 318.3 K)?
**A.** 0.071

**Q.** What about the solubility (mole fraction) (in propylene glycol, 323.7 K) of the same molecule?
**A.** 0.092

**Q.** What about the solubility (mole fraction) (in propylene glycol, 327.9 K) of the same molecule?
**A.** 0.112

**Q.** What about the solubility (mole fraction) (in propylene glycol, 330.7 K) of the same molecule?
**A.** 0.126

**Q.** And the solubility (mole fraction) (in propylene glycol, 333.9 K)?
**A.** 0.145

— BigSolDB 2.1
